Experiments:
[1] = Particle size of Luc DNA-encapsulated lipid nanoparticles; format: physicochemical; settings: cationic lipid:DPPC:cholesterol:GM-020=60:10.6:28:1.4 molar ratio
Excerpt: The particle size of the lipid particle (in the composition) can be measured by a known approach. For example, the particle size can be calculated as a Z-average particle size by the cumulant analysis of an autocorrelation function using a particle size measurement apparatus Zetasizer Nano ZS (Malvern Instruments) based on a dynamic light scattering measurement technique. The particle size (average particle size) of the lipid particle (in the composition) is, for example, 10 to 200 nm, preferably 60 to 170 nm.
(§1) A lipid mixture containing a cationic lipid of the Examples shown in Table 2 (cationic lipid:DPPC:cholesterol:GM-020=60:10.6:28:1.4, molar ratio) was dissolved in 90% of EtOH and 10% of water to obtain a 15.0 mg/ml lipid solution. Luciferase (luc) DNA (manufactured by Nature Technology Corp.) was dissolved in a 10 mM MES buffer solution (pH 5.5) to obtain a 0.3 mg/ml nucleic acid solution. The obtained lipid solution and nucleic acid solution were mixed at a flow rate ratio of 3 ml/min:6 ml/min at room temperature using NanoAssemblr (manufactured by Precision NanoSystems Inc.) to obtain a dispersion containing Luc DNA-encapsulated lipid nanoparticles. The obtained dispersion was dialyzed against water at room temperature for 1 hour and against PBS at 4° C. for 23 hours using Slyde-A-Lyzer (molecular weight cutoff: 20 K, Thermo Fischer Scientific Inc.). Subsequently, the dialysate was filtered through a 0.2 µm syringe filter (Iwaki). A 60% solution of sucrose in PBS was added thereto, and the mixture was preserved as a 20% solution of sucrose in PBS at −80° C. Analysis results of particle size and rate of encapsulation of the Luc DNA-encapsulated lipid nanoparticles are also shown in Table 2.

[2] = Rate of encapsulation of Luc DNA in lipid nanoparticles; format: physicochemical; design: unit: %; settings: Luc DNA-encapsulated lipid nanoparticles; cationic lipid:DPPC:cholesterol:GM-020=60:10.6:28:1.4 molar ratio
Excerpt: The concentration and rate of encapsulation of the nucleic acid (e.g., siRNA or mRNA) in the composition of the present invention can be measured by a known approach. For example, the nucleic acid is fluorescently labeled using Quant-iT™ RiboGreen® (Invitrogen Corp.), and the fluorescence intensity can be measured to determine the concentration and the rate of encapsulation. The concentration of the nucleic acid in the composition can be calculated using a calibration curve prepared from aqueous nucleic acid solutions having known concentrations. The rate of encapsulation can be calculated on the basis of the difference in fluorescence intensity between the presence and absence of addition of Triton-X 100 (surfactant for disrupting the lipid particle). The concentration of the nucleic acid in the composition refers to the total concentration of a nucleic acid encapsulated in the lipid particle and an unencapsulated nucleic acid. The rate of encapsulation refers to the ratio of the nucleic acid encapsulated in the lipid particle to all nucleic acids in the composition.
as §1

ICrl:CD1 (ICR) mice = assay: Mouse bioluminescence imaging evaluation (Test Example 1); format: in vivo; settings: Luc DNA-encapsulated lipid nanoparticles 10 mL/kg i.v. to ICR mice; IVIS total flux 15 minutes after luciferin i.p.
Description: The Luc DNA-encapsulated lipid nanopatricles obtained in the aforesaid Production Example were intravenously administered to the tails of ICrl:CD1 (ICR) mice (10 mL/kg i.v.). After administration of the lipid particles, luciferin (15 mg/mL) was administered to the mice (10 mL/kg i.p.), which were loaded in an IVIS (in vivo imaging system) apparatus (manufactured by PerkinElmer, Inc.) under isoflurane inhalation anesthesia. Luminescence images of the mice were taken ventrally (in a supine position) 15 minutes after luciferin administration. The luminescence was digitized with the software of IVIS, followed by evaluation using the value of total flux. Higher luminescence means strong expression of the protein encoded by the DNA encapsulate in the lipid particle. In Table 2, higher luminescence is indicated on a scale of A, B and C in order. A represents luminescence of 3.0E+07 or more, B represents luminescence of 1.0E+0.7 or more and less than 3.0E+07, and C represents luminescence of less than 1.0E+07.

Row | Particle size (nm) [1] [nm] | Rate of encapsulation [2] | SMILES | Luminescence (ICrl:CD1 (ICR) mice)
1 | 125.7 | 94.1 | CCCCCCCOC(=O)CCCCC(=O)OCC(COC(=O)CCCCC(=O)OCCCCCCC)(COC(=O)CCCN(C(C)C)C(C)C)COC(=O)CC(CCCCC)CCCCC [Example 92, 1,1′-(2-[({4-[di(Propan-2-yl)amino]butanoyl}oxy)methyl]-2-{[(3-pentyloctanoyl)oxy]methyl}propane-1,3-diyl] 6,6′-diheptyl dihexanedioate] | B (B represents luminescence of 1.0E+0.7 or more and less than 3.0E+07)
2 | 129.4 | 93.0 | CCCCCCCOC(=O)CCCCC(=O)OCC(COC(=O)CCCCC(=O)OCCCCCCC)(COC(=O)CCCN(C)CCCO)COC(=O)CC(CCCCC)CCCCC [Example 94, 1,1′-Diheptyl 6,6′-(2-[({4-[(3-hydroxypropyl)(methyl)amino]butanoyl}oxy)methyl]-2-{[(3-pentyloctanoyl)oxy]methyl}propane-1,3-diyl) dihexanedioate] | C (C represents luminescence of less than 1.0E+07)
3 | 82.6 | 99.1 | CCCCCC(CCCCC)COC(=O)CCC(=O)OCC(COC(=O)CCCN(C)C)(COC(=O)CCC(=O)OCC(CCCCC)CCCCC)COC(=O)CC(CCCCC)CCCCC [Example 95, 1,1′-[2-({[4-(Dimethylamino)butanoyl]oxy}methyl)-2-{[(3-pentyloctanoyl)oxy]methyl}propane-1,3-diyl] 4,4′-bis(2-pentylheptyl) dibutanedioate] | B (B represents luminescence of 1.0E+0.7 or more and less than 3.0E+07)
4 | 74.2 | 98.8 | CCCCCC(CCCCC)COC(=O)CCC(=O)OCC(COC(=O)CCCN(C)C)(COC(=O)CC(CCCCC)CCCCC)COC(=O)CC(CCCCC)CCCCC [Example 96, 2-({[4-(Dimethylamino)butanoyl]oxy}methyl)-3-[(3-pentyloctanoyl)oxy]-2-{[(3-pentyloctanoyl)oxy]methyl}propyl 2-pentylheptyl butanedioate] | B (B represents luminescence of 1.0E+0.7 or more and less than 3.0E+07)
5 | 118.7 | 97.8 | CCCCCCCCCOC(=O)CCC(=O)OCC(COC(=O)CCCN(C)C)(COC(=O)CCC(=O)OCCCCCCCCC)COC(=O)CC(CCCCC)CCCCC [Example 97, 1,1′-[2-({[4-(Dimethylamino)butanoyl]oxy}methyl)-2-{[(3-pentyloctanoyl)oxy]methyl}propane-1,3-diyl] 4,4′-dinonyl dibutanedioate] | A (A represents luminescence of 3.0E+07 or more)
6 | 140.5 | 96.3 | CCCCCCCCOC(=O)CCCC(=O)OCC(COC(=O)CCCC(=O)OCCCCCCCC)(COC(=O)CCCN(C)C)COC(=O)CC(CCCCC)CCCCC [Example 98, 1,1′-[2-({[4-(Dimethylamino)butanoyl]oxy}methyl)-2-{[(3-pentyloctanoyl)oxy]methyl}propane-1,3-diyl] 5,5′-dioctyl dipentanedioate] | A (A represents luminescence of 3.0E+07 or more)
7 | 153.8 | 92.4 | CCCCCCOC(=O)CCCCCC(=O)OCC(COC(=O)CCCCCC(=O)OCCCCCC)(COC(=O)CCCN(C)C)COC(=O)CC(CCCCC)CCCCC [Example 99, 1,1′-[2-({[4-(Dimethylamino)butanoyl]oxy}methyl)-2-{[(3-pentyloctanoyl)oxy]methyl}propane-1,3-diyl] 7,7′-dihexyl diheptanedioate] | A (A represents luminescence of 3.0E+07 or more)
8 | 141.8 | 94.9 | CCCCCCCCCOC(=O)CCC(=O)OCC(COC(=O)CCCN(CC)C(C)C)(COC(=O)CCC(=O)OCCCCCCCCC)COC(=O)CC(CCCCC)CCCCC [Example 100] | B (B represents luminescence of 1.0E+0.7 or more and less than 3.0E+07)
9 | 137.2 | 93.2 | CCCCCCCCOC(=O)CCCC(=O)OCC(COC(=O)CCCC(=O)OCCCCCCCC)(COC(=O)CCCN(CC)C(C)C)COC(=O)CC(CCCCC)CCCCC [Example 101, 1,1′-(2-[({4-[Ethyl(propan-2-yl)amino]butanoyl}oxy)methyl]-2-{[(3-pentyloctanoyl)oxy]methyl}propane-1,3-diyl) 5,5′-dioctyl dipentanedioate] | A (A represents luminescence of 3.0E+07 or more)
10 | 139.8 | 91.8 | CCCCCCOC(=O)CCCCCC(=O)OCC(COC(=O)CCCCCC(=O)OCCCCCC)(COC(=O)CCCN(CC)C(C)C)COC(=O)CC(CCCCC)CCCCC [Example 102, 1,1′-(2-[({4-[Ethyl(propan-2-yl)amino]butanoyl}oxy)methyl]-2-{[(3-pentyloctanoyl)oxy]methyl}propane-1,3-diyl) 7,7′-dihexyl diheptanedioate] | B (B represents luminescence of 1.0E+0.7 or more and less than 3.0E+07)
11 | 122.0 | 97.0 | CCCCCC(CCCCC)CC(=O)OCC(COC(=O)CCCCC(=O)OCC(CCC)CCC)(COC(=O)CCCCC(=O)OCC(CCC)CCC)COC(=O)CCCN(CC)C(C)C [Example 116, 1,1′-(2-[({4-[Ethyl(propan-2-yl)amino]butanoyl}oxy)methyl]-2-{[(3-pentyloctanoyl)oxy]methyl}propane-1,3-diyl) 6,6′-bis(2-propylpentyl) dihexanedioate] | B (B represents luminescence of 1.0E+0.7 or more and less than 3.0E+07)
12 | 161.0 | 82.0 | CCCCCC(CCCCC)CC(=O)OCC(COC(=O)CCCCC(=O)OCC(CCCC)CCCC)(COC(=O)CCCCC(=O)OCC(CCCC)CCCC)COC(=O)CCCN(C)C [Example 117, 1,1′-Bis(2-butylhexyl) 6,6′-[2-({[4-(dimethylamino)butanoyl]oxy}methyl)-2-{[(3-pentyloctanoyl)oxy]methyl}propane-1,3-diyl] dihexanedioate] | B (B represents luminescence of 1.0E+0.7 or more and less than 3.0E+07)
13 | 152.1 | 96.0 | CCCCCCOC(=O)C(CCCCCC)C(=O)OCC(COC(=O)CCCCN(C)C)(COC(=O)CC(CCCCC)CCCCC)COC(=O)C(CCCCCC)C(=O)OCCCCCC (stereo not drawn) [Example 122, 1,1′-[2-({[5-(Dimethylamino)pentanoyl]oxy}methyl)-2-{[(3-pentyloctanoyl)oxy]methyl}propane-1,3-diyl] 3,3′-dihexyl bis(hexylpropanedioate)] | B (B represents luminescence of 1.0E+0.7 or more and less than 3.0E+07)
14 | 144.9 | 92.6 | CCCCCOC(=O)CCCCCCC(=O)OCC(COC(=O)CCCCCCC(=O)OCCCCC)(COC(=O)CCCN(C)C)COC(=O)CC(CCCCC)CCCCC [Example 129, 1,1′-[2-({[4-(Dimethylamino)butanoyl]oxy}methyl)-2-{[(3-pentyloctanoyl)oxy]methyl}propane-1,3-diyl] 8,8′-dipentyl dioctanedioate] | A (A represents luminescence of 3.0E+07 or more)

Reference: patent US20250197343A1, “CATIONIC LIPID” (TAKEDA PHARMACEUTICAL COMPANY LIMITED, priority 2021, published 2025)
